ChEMBL document CHEMBL5053534, “Germacrane sesquiterpenes from leaves of Eupatorium chinense inhibit protein tyrosine phosphatase” (Bioorg Med Chem Lett, 2021)

Columns and labels:
[1] = target: T1, Tyrosine-protein phosphatase non-receptor type 2 (Homo sapiens, UniProt P17706); assay: Inhibition of human recombinant TCPTP using pNPP as substrate assessed as reduction in p-nitrophenol release incubated for 30 mins by absorbance based analysis
T1 sequence (P17706 whole entry): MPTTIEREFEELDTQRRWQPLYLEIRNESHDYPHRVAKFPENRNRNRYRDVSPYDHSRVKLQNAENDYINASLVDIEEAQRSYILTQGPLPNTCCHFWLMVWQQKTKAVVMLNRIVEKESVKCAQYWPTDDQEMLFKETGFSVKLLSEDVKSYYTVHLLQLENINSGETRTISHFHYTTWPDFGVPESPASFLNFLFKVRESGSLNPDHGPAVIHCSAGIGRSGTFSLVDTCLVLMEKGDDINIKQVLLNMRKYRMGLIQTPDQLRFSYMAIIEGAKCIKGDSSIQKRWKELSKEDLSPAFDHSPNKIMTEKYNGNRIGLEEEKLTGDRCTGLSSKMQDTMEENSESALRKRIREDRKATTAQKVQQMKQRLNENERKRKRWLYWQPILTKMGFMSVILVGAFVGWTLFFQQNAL

[2] = target: T2, Tyrosine-protein phosphatase non-receptor type 1 (Homo sapiens, UniProt P18031); assay: Inhibition of human recombinant PTP1B using pNPP as substrate assessed as reduction in p-nitrophenol release incubated for 30 mins by absorbance based analysis
T2 sequence (P18031 whole entry): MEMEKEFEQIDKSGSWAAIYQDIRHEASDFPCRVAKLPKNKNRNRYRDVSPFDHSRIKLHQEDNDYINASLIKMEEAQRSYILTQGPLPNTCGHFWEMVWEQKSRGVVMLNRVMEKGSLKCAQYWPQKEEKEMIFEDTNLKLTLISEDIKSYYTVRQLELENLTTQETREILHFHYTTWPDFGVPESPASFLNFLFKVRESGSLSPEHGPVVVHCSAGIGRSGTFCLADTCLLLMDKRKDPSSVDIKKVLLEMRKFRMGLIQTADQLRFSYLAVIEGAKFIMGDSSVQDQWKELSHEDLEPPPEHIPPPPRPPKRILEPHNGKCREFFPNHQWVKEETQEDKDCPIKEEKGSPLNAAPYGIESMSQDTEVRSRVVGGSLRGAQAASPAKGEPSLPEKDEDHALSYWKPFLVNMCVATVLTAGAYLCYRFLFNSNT

SMILES | IC50 [1] [µM] | IC50 [2] [µM]
C=C1C(=O)O[C@@H]2/C=C(\C)CC/C=C(\C)C[C@@H](OC(=O)/C(=C/CO)CO)[C@@H]12 | > 28 | > 28
C=C1C(=O)O[C@@H]2/C=C(\C)CC/C=C(\C)C[C@@H](OC(=O)/C(=C\C)CO)[C@@H]12 | 25 | 11
C=C1C(=O)O[C@@H]2/C=C(\C)C[C@H](O)/C=C(\C)C[C@@H](OC(=O)/C(=C\C)COC(C)=O)[C@@H]12 | > 25 | > 25
C=C1C(=O)O[C@@H]2/C=C(\C)CC/C=C(\CO)C[C@@H](OC(=O)/C(C)=C/C)[C@@H]12 | > 25 | > 25
C=C1C(=O)O[C@@H]2/C=C(\C)CC/C=C(\C)C[C@@H](OC(=O)/C(=C/C)CO)[C@@H]12 | > 29 | > 29
C=C1C(=O)O[C@@H]2/C=C(\C)[C@@H](O)C/C=C(\C)C[C@@H](OC(=O)/C(=C\C)COC(C)=O)[C@@H]12 | > 25 | 25
C=C1C(=O)O[C@@H]2/C=C(\C)CC/C=C(\C)C[C@@H](OC(=O)/C(=C/C)COC(C)=O)[C@@H]12 | > 25 | > 25
C=C1C(=O)O[C@@H]2/C=C(\C)CC/C=C(\C)C[C@@H](OC(=O)/C(=C\COC(C)=O)CO)[C@@H]12 | > 29 | > 29
C=C1C(=O)O[C@@H]2/C=C(\C)C[C@H](O)/C=C(\C)C[C@@H](OC(=O)/C(=C\C)CO)[C@@H]12 | > 28 | 28
